In paper PMC3495945, “Org 214007-0: A Novel Non-Steroidal Selective Glucocorticoid Receptor Modulator with Full Anti-Inflammatory Properties and Improved Therapeutic Index” (PLoS ONE, 2012):
pEC50, pIC50, pKi: −log10 of the molar value.

What was measured:
[1] = target: T1, human estrogen receptor beta (ERβ) (Homo sapiens, UniProt Q92731); experiment: CHO steroid receptor reporter assay, ERβ / rat oxytocin-Luc; assay type: cell-based; settings: ERß
T1 construct: expressed in transfected cells; host or cells: CHO K1
From the text: (§1) For monitoring both human steroid receptor agonistic as well as antagonistic activity of compounds, Chinese hamster ovary (CHO) K1 cells stably co-transfected with the specific human steroid receptor and its respective reporter construct were used (as previously described).
(§2) For human glucocorticoid receptor (GR)-specific activity CHO-GR B4.8 cells containing both recombinant human GR as well as a reporter construct consisting of the mouse mammary tumor virus (MMTV) promotor and the luciferase reporter gene, were used. Compound was incubated alone (in the agonistic setup) or with 50 nM dexamethasone (in the antagonistic setup) overnight. Hereafter, 200 µl medium was removed and 50 µl luciferine substrate solution from the LucLite luminescence kit (Packard, Meriden, USA) was added. […] Percentage maximal antagonistic efficacy was related to the maximal antagonistic efficacy of reference GR antagonist Org 34116. Similar procedures were followed for the other human steroid receptor assays (for more detailed information see Supportive Information) (SI text).
(§3) Similar procedures were followed for the other human steroid receptor assays containing combinations of human progesterone receptor B (PR-B) and MMTV-Luc, human androgen receptor (AR) and MMTV-Luc, human chimeric glucocorticoid-mineralocorticoid receptor (GGM, Trapp et al. (1994), Neuron 13: 1457) and MMTV-Luc, human estrogen receptor alpha (ERα) and rat oxytocin-Luc (45), and human estrogen receptor beta (ERβ) and rat oxytocin-Luc, respectively.

[2] = target: T2, human androgen receptor (AR) (Homo sapiens, UniProt P10275); experiment: CHO steroid receptor reporter assay, AR / MMTV-Luc; assay type: cell-based
T2 construct: expressed in transfected cells; host or cells: CHO K1
T2 sequence (P10275 1-920): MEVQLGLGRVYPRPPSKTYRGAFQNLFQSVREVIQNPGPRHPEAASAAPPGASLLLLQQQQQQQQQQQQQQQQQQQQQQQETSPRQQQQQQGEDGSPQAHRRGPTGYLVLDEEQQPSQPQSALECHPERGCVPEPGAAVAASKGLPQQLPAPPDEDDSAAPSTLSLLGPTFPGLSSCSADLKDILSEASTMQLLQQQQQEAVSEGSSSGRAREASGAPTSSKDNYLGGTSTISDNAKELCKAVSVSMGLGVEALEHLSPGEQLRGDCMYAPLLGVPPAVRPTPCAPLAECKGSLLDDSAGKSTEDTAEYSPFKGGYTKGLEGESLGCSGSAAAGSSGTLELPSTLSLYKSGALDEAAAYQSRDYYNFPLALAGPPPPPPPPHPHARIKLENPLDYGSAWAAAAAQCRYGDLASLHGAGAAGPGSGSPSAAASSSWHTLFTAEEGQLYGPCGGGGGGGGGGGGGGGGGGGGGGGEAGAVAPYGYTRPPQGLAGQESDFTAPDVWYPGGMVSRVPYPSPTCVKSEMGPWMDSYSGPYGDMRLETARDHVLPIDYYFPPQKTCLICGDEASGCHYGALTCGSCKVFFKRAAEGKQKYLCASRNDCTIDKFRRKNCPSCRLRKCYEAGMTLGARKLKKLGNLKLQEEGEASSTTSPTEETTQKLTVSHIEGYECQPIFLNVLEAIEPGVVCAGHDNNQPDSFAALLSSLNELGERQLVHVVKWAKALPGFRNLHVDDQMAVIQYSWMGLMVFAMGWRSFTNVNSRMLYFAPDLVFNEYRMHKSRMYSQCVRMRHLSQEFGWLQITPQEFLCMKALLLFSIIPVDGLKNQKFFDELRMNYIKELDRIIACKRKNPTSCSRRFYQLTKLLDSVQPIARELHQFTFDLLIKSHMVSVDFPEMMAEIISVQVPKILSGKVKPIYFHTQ
From the text: as §1, §2, §3

[3] = target: T3, human progesterone receptor B (PR-B) (Homo sapiens, UniProt P06401); experiment: CHO steroid receptor reporter assay, PR-B / MMTV-Luc; assay type: cell-based
T3 construct: expressed in transfected cells; host or cells: CHO K1
T3 sequence (P06401 1-933): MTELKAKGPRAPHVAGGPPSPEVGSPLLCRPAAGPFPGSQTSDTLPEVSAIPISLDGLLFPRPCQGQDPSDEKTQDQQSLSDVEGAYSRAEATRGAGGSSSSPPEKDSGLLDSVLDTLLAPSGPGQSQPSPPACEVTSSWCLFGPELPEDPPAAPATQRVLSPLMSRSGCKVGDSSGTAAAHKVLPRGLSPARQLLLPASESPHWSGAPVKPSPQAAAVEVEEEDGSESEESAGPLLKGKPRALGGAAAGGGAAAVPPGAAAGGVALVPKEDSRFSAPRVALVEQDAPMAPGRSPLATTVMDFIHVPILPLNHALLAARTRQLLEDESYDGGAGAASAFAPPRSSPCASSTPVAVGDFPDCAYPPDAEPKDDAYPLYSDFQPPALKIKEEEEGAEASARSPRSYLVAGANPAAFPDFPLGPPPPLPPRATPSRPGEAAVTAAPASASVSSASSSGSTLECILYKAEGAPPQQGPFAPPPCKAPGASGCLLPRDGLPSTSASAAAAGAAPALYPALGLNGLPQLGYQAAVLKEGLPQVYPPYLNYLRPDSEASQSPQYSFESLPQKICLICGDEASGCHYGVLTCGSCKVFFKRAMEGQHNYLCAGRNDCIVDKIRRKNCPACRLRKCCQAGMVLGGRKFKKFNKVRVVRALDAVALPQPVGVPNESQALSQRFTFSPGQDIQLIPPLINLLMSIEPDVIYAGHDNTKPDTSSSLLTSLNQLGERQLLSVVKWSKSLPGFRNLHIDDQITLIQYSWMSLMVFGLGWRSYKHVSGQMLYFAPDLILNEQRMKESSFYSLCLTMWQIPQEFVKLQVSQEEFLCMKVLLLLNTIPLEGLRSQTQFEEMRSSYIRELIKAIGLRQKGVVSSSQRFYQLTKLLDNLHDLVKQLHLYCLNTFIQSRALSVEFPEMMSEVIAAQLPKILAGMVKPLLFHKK
From the text: as §1, §2, §3

[4] = target: T4, recombinant human glucocorticoid receptor (GR) (Homo sapiens, UniProt P04150); experiment: Glucocorticoid receptor fluorescence polarisation competitor binding assay; settings: fluorescence polarization competitor binding; mean (±SD); read-out: Ki, competitive binding
T4 construct: purchased Panvera P2816
From the text: (for more detailed information see Supportive Information) (SI text).

T1 sequence (Q92731 whole entry): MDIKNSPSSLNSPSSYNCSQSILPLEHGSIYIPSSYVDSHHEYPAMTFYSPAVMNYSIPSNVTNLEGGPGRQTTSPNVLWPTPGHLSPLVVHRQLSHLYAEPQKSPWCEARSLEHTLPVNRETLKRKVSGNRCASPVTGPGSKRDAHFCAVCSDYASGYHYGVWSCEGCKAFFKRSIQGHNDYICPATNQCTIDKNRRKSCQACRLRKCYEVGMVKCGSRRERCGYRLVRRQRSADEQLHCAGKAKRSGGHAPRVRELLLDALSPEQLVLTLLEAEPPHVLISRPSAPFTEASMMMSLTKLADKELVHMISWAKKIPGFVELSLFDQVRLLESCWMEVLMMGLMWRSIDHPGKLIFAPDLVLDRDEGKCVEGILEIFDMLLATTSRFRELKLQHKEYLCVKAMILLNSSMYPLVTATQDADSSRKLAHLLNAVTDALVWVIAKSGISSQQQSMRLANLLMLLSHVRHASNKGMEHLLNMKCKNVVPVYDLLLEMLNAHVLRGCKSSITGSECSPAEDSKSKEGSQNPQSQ
T4 sequence (P04150 whole entry): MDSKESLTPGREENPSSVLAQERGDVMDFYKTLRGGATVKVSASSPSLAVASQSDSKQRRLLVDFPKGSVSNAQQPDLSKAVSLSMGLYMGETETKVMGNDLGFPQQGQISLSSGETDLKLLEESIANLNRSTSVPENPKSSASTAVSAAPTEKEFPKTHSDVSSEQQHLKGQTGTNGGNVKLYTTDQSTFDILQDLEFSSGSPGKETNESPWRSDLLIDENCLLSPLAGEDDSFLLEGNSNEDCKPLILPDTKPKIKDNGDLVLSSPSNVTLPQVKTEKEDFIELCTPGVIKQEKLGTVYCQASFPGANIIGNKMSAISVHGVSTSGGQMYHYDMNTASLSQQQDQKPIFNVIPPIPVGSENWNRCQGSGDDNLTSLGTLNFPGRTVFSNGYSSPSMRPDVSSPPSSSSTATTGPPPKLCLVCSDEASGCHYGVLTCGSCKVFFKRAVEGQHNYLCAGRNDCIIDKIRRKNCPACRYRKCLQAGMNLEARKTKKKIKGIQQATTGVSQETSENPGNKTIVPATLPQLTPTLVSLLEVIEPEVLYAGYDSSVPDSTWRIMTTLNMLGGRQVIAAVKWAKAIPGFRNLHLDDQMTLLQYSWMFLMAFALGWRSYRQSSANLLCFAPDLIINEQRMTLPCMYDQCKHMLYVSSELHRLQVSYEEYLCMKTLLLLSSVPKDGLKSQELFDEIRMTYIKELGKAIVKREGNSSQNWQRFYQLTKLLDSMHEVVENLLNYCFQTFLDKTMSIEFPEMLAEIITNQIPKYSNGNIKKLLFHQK

Cc1nnsc1C(=O)N[C@H]1CCN2c3ccc(C#N)cc3[C@@H](C)c3ccccc3[C@@H]2C1 [Org 214007-0]
pEC50 ([1]; read-out: EC50 (agonist)): < 7.00 | pIC50 ([1]; read-out: IC50 (antagonist)): < 6.00 | % agonist potency ([1]; relative to reference compound): <0.01% | % antagonist potency ([1]; relative to reference compound): <0.9% | pEC50 ([2]; read-out: EC50 (agonist)): < 7.00 | pIC50 ([2]; read-out: IC50 (antagonist)): < 6.00 | % agonist potency ([2]; relative to reference compound): <0.13% | % antagonist potency ([2]; relative to reference compound): <3.83% | pIC50 ([3]; mean (±SD), read-out: IC50 (antagonist)): 7.71 | Emax ([3]; read-out: % efficacy (antagonist)): > 87% | pEC50 ([3]; read-out: EC50 (agonist)): < 7.00 | % agonist potency ([3]; relative to reference compound): <0.03% | % antagonist potency ([3]; relative to reference compound, mean (±SD)): 0.46 (±0.2) % | pKi [4]: 8.66
